# Measured values taken from patent US4689326A, “Process for controlling hyperlipidemia” (Research Corporation, priority 1985, dated 1987).
# Where two headings read alike, the source gives them in different places.
# Key:
# Assay type in all cases: in vivo, CF1 male mice
# serum cholesterol [1] = experiment: Testing of Normal Mice: serum cholesterol (modified Liebermann-Burchard), Example 7; conditions: Mus musculus; for response vs control in vivo at 20 mg/kg: 20 mg/kg/day ip; for response vs control in vivo at 150 mg/kg: 150 mg/kg/day ip
# Experimental: (§1) Suspensions of Compounds Nos. 1-9 were prepared wherein the compounds were suspended in an aqueous 1% carboxymethylcelluose solution, homogenized and administered to CF1 male mice, each weighing approximately 25 grams, intraperitoneally on a daily basis for 16 days. The dosage was, with the exception of one compound, 20 milligrams of the active compound per kilogram of mouse weight per day. On days 9 and 16 blood was obtained by tail vein bleeding. The blood serum was separated by centrifugation for three minutes. Serum cholesterol levels were determined by a modification of the Liebermann-Burchard reaction. Serum was also collected on day 16 and the triglycerides content was determined by a commercial kit, BioDynamics/bnc Single Vile Colorimetric Method 348201. Each compound was tested on a group of six mice.
# (§2) In addition to the above-described treated mice, untreated control groups of six mice were similarly tested on days 9 and 14 or 16 to determine their serum cholesterol and triglycerides blood levels. Table 5 reports the percent control, based on the serum cholesterol and serum triglyceride levels of the treated mice compared to the untreated controls. Table 5 also includes the standard deviation indicating the level of confidence of these numbers.
# (§3) Example 7 was repeated substituting clofibrate, a compound used in the prior art to lower serum cholesterol and serum triglyceride levels. The clofibrate was administered as a suspension in an aqueous 1% solution of carboxymethylcellulose. However, unlike the compounds of the present invention which were administered at a dosage of 20 mg/kg day, ip, this compound was administered at the elevated concentration of 150 mg/kg day, ip.
# serum triglycerides [2] = experiment: Testing of Normal Mice: serum triglycerides (BioDynamics kit), Example 7; conditions: Mus musculus, 384 h, day 16, ± SD; for response vs control in vivo at 20 mg/kg: 20 mg/kg/day ip
# Experimental: as §1, §2, §3
# serum cholesterol [3] = experiment: Hypolipidemic Activity of Compounds 1 and 10-33, Example 13: serum cholesterol; conditions: Mus musculus, 20 mg/kg/day ip
# Experimental: (§4) Compounds 1 and 10-33, identified below in Table 11, were suspended by homogenation in a 1% aqueous solution of carboxymethylcellulose (CMC) such that a 0.2 ml dosage supplied a concentration of 20 mg/kg of the active compounds. The suspending agent, the 1% aqueous solution of CMC, was utilized as a control, applied in the same quantity, 0.2 ml. CF1 male mice, maintained in groups of six, were fed Wayne Blox [trademark] laboratory animal show ad libitum with water. The mice, which each weighed approximately 25 g, were administered the drugs interperitoneally at approximately the same time. On days 9 and 16 approximately […] of blood was taken from each of the animals by tail bleeding. After centrifugation to obtain serum, 25 microliter samples were assayed for total cholesterol utilizing the method of Ness et al. Serum triglyicerides were assayed, using a commercially available BioDynamics/bmc triglyiceride kit, on blood collected on the 16th day. By comparison to standards the milligram percent of cholesterol and milligram per deciliter concentration of triglicerides were calculated. Treated values were expressed as a percent of the level of the control animals plus or minus the standard deviation. The "T" values were obtained using the Student's "t" test.
# serum triglycerides [4] = experiment: Hypolipidemic Activity of Compounds 1 and 10-33, Example 13: serum triglycerides; conditions: Mus musculus, 384 h; 20 mg/kg/day ip, day 16, ± SD; read-out: Serum Triglyceride as a function of control, 16 Day
# Experimental: as §4
# [5] = 216 h, day 9, ± SD, read-out: Serum Cholesterol Control, % Day 9
# [6] = 384 h, day 16, ± SD, read-out: Serum Cholesterol Control, % Day 16
# [7] = 216 h, day 9, ± SD, read-out: Serum Cholesterol as a function of control, 9 Day
# [8] = 384 h, day 16, ± SD, read-out: Serum Cholesterol as a function of control, 16 Day
Structure (SMILES),response vs control in vivo at 20 mg/kg (serum cholesterol [3]; [7]) [%],response vs control in vivo at 20 mg/kg (serum cholesterol [3]; [8]) [%],response vs control in vivo at 20 mg/kg (serum triglycerides [4]) [%],other results
"O=C1NCc2ccccc2-c2ccccc21 [Compound 2, 3,4,5,6-dibenzohomopiperidin-2-one]",–,–,–,response vs control in vivo at 20 mg/kg (serum cholesterol [1]; [5]): 84 ± 6%; response vs control in vivo at 20 mg/kg (serum cholesterol [1]; [6]): 49 ± 4%; response vs control in vivo at 20 mg/kg (serum triglycerides [2]): 73 ± 5%
"CN1Cc2ccccc2-c2ccccc2C1 [Compound 4, 2-methyl-3,4,5,6-dibenzohomo-piperidine]",–,–,–,response vs control in vivo at 20 mg/kg (serum cholesterol [1]; [5]): 75 ± 6%; response vs control in vivo at 20 mg/kg (serum cholesterol [1]; [6]): 61 ± 5%; response vs control in vivo at 20 mg/kg (serum triglycerides [2]): 66 ± 6%
"CCN1Cc2ccccc2-c2ccccc2C1 [Compound 5, 2-ethyl-3,4,5,6-dibenzohomopiperidine]",–,–,–,response vs control in vivo at 20 mg/kg (serum cholesterol [1]; [5]): 67 ± 5%; response vs control in vivo at 20 mg/kg (serum cholesterol [1]; [6]): 59 ± 4%; response vs control in vivo at 20 mg/kg (serum triglycerides [2]): 60 ± 4%
"CCCN1Cc2ccccc2-c2ccccc2C1 [Compound 6, 2-propyl-3,4,5,6-dibenzohomopiperidine]",–,–,–,response vs control in vivo at 20 mg/kg (serum cholesterol [1]; [5]): 78 ± 6%; response vs control in vivo at 20 mg/kg (serum cholesterol [1]; [6]): 65 ± 5%; response vs control in vivo at 20 mg/kg (serum triglycerides [2]): 73 ± 6%
"CCCCN1Cc2ccccc2-c2ccccc2C1 [Compound 7, 2-butyl-3,4,5,6-dibenzohomopiperidine]",–,–,–,response vs control in vivo at 20 mg/kg (serum cholesterol [1]; [5]): 82 ± 7%; response vs control in vivo at 20 mg/kg (serum cholesterol [1]; [6]): 59 ± 6%; response vs control in vivo at 20 mg/kg (serum triglycerides [2]): 52 ± 7%
"CCCCCN1Cc2ccccc2-c2ccccc2C1 [Compound 8, 2-pentyl-3,4,5,6-dibenzohomopiperidine]",–,–,–,response vs control in vivo at 20 mg/kg (serum cholesterol [1]; [5]): 71 ± 6%; response vs control in vivo at 20 mg/kg (serum cholesterol [1]; [6]): 67 ± 5%; response vs control in vivo at 20 mg/kg (serum triglycerides [2]): 71 ± 4%
"CC(=O)CCN1Cc2ccccc2-c2ccccc2C1 [Compound 9, 2-(3-Oxobutyl)-3,4,5,6-Dibenzohomopiperidine]",–,–,–,response vs control in vivo at 20 mg/kg (serum cholesterol [1]; [5]): 69 ± 8%; response vs control in vivo at 20 mg/kg (serum cholesterol [1]; [6]): 56 ± 7%; response vs control in vivo at 20 mg/kg (serum triglycerides [2]): 45 ± 5%
"Cn1c(=O)c2ccccc2c2ccccc2c1=O [Compound 10, N-methyldiphenimide]",64 ± 7,63 ± 5,67 ± 6,–
"CCn1c(=O)c2ccccc2c2ccccc2c1=O [Compound 11, N-ethyldiphenimide]",64 ± 6,62 ± 5,66 ± 7,–
"CCCn1c(=O)c2ccccc2c2ccccc2c1=O [Compound 12, N-propyldiphenimide]",69 ± 7,66 ± 6,57 ± 5,–
"CCCCn1c(=O)c2ccccc2c2ccccc2c1=O [Compound 13, N-butyldiphenimide]",78 ± 7,77 ± 10,52 ± 5,–
"CCCCCn1c(=O)c2ccccc2c2ccccc2c1=O [Compound 14, N-pentyldiphenimide]",90 ± 8,69 ± 4,60 ± 5,–
"O=c1c2ccccc2c2ccccc2c(=O)n1Cc1ccccc1 [Compound 15, N-benzyldiphenimide]",91 ± 7,61 ± 6,77 ± 7,–
"CC(=O)CCn1c(=O)c2ccccc2c2ccccc2c1=O [Compound 16, N-(3-Oxobutyl)-Diphenimide]",77 ± 5,77 ± 7,90 ± 4,–
"O=C(O)CCn1c(=O)c2ccccc2c2ccccc2c1=O [Compound 17, N-(2-Carboxyethyl)-Diphenimide]",88 ± 11,84 ± 6,75 ± 10,–
"O=c1c2ccccc2c2ccccc2c(=O)n1-c1ccccc1 [Compound 18, N-phenyldiphenimide]",97 ± 8,67 ± 6,62 ± 6,–

Structure (SMILES),response vs control in vivo at 20 mg/kg (serum cholesterol [3]; [7]) [%],response vs control in vivo at 20 mg/kg (serum cholesterol [3]; [8]) [%],response vs control in vivo at 20 mg/kg (serum triglycerides [4]) [%],other results
"COc1ccccc1-n1c(=O)c2ccccc2c2ccccc2c1=O [Compound 19, N-(2-methoxy)-phenyldiphenimide]",80 ± 8,67 ± 5,68 ± 5,–
"COc1cccc(-n2c(=O)c3ccccc3c3ccccc3c2=O)c1 [Compound 20, N-(3-methoxy)phenyldiphenimide]",84 ± 7,74 ± 7,72 ± 8,–
"COc1ccc(-n2c(=O)c3ccccc3c3ccccc3c2=O)cc1 [Compound 21, N-(4-methoxy)-phenyldiphenimide]",91 ± 7,84 ± 8,74 ± 6,–
"Cc1ccccc1-n1c(=O)c2ccccc2c2ccccc2c1=O [Compound 22, N-(2-methyl)-phenyldiphenimide]",78 ± 7,61 ± 6,65 ± 6,–
"Cc1cccc(-n2c(=O)c3ccccc3c3ccccc3c2=O)c1 [Compound 23, N-(3-methyl)-phenyldiphenimide]",78 ± 7,76 ± 7,63 ± 6,–
"Cc1ccc(-n2c(=O)c3ccccc3c3ccccc3c2=O)cc1 [Compound 24, N-(4-methyl)-phenyldiphenimide]",57 ± 7,52 ± 6,60 ± 7,–
"CCc1ccccc1-n1c(=O)c2ccccc2c2ccccc2c1=O [Compound 25, N-(2-ethyl)phenyldiphenimide]",82 ± 8,73 ± 6,84 ± 7,–
"CCc1cccc(-n2c(=O)c3ccccc3c3ccccc3c2=O)c1 [Compound 26, N-(3-ethyl)-phenyldiphenimide]",95 ± 7,77 ± 7,66 ± 6,–
"CCc1ccc(-n2c(=O)c3ccccc3c3ccccc3c2=O)cc1 [Compound 27, N-(4-ethyl)-phenyldiphenimide]",101 ± 8,71 ± 5,70 ± 7,–
"O=c1c2ccccc2c2ccccc2c(=O)n1-c1ccccc1Cl [Compound 28, N-(2-chloro)-phenyldiphenimide]",67 ± 6,64 ± 5,65 ± 6,–
"O=c1c2ccccc2c2ccccc2c(=O)n1-c1cccc(Cl)c1 [Compound 29, N-(3-chloro)-phenyldiphenimide]",81 ± 8,78 ± 8,87 ± 7,–
"O=c1c2ccccc2c2ccccc2c(=O)n1-c1ccc(Cl)cc1 [Compound 30, N-(4-chloro)phenyldiphenimide]",74 ± 6,67 ± 5,64 ± 4,–
"CC(=O)c1ccccc1-n1c(=O)c2ccccc2c2ccccc2c1=O [Compound 31, N-(2-acetyl)-phenyldiphenimide]",79 ± 7,76 ± 6,58 ± 6,–
"CC(=O)c1cccc(-n2c(=O)c3ccccc3c3ccccc3c2=O)c1 [Compound 32, N-(3-acetyl)-phenyldiphenimide]",77 ± 8,68 ± 6,58 ± 4,–
"CC(=O)c1ccc(-n2c(=O)c3ccccc3c3ccccc3c2=O)cc1 [Compound 33, N-(4-acetyl)-diphenimide]",80 ± 5,73 ± 5,70 ± 5,–
"CCOC(=O)C(C)(C)Oc1ccc(Cl)cc1 [Compound C2, clofibrate, reference compound]",–,–,–,response vs control in vivo at 150 mg/kg (serum cholesterol [1]; [5]): 88 ± 7%; response vs control in vivo at 150 mg/kg (serum cholesterol [1]; [6]): 87 ± 5%; response vs control in vivo at 150 mg/kg (serum triglycerides [2]; 150 mg/kg/day ip): 75 ± 5%
